Laboratory results as given in publication PMC7874188, “Mucoromycotina Fungi Possess the Ability to Utilize Plant Sucrose as a Carbon Source: Evidence From Gongronella sp. w5” (Frontiers in Microbiology, 2021).

Test system: T1, GspInv
T1 construct: native, purified from w5 mycelia cytoplasm (High Q, Sephacryl S100); untagged
Experiment: invertase hydrolysis kinetics, […] substrate
Type: biochemical, Gongronella sp. w5
Conditions: pH 5.0 citrate-Na2HPO4, optimal temperature; constant printed only as "substrate affinity"

Km: 3.1 mM
SMILES: OC[C@H]1O[C@@](CO)(O[C@H]2O[C@H](CO)[C@@H](O)[C@H](O)[C@H]2O)[C@@H](O)[C@@H]1O [sucrose]
